Measured values published in US12076301B2, “Engaging the cervical spinal cord circuitry to re-enable volitional control of hand function in tetraplegic subjects” (The Regents of the University of California, priority 2013, dated 2024).

System: subjects with a chronic motor complete cervical injury
Test: Maximal handgrip strength (handgrip force measurement device) in tetraplegic subjects during pcEmc with oral buspirone
Type: in vivo, human
Protocol: Six subjects with chronic (18-36 months) spinal cord injury (SCI, traumatic cervical injury, ASIA B with no motor strength below the injury) were tested to determine if hand function can be improved by neuromodulating the cervical spinal cord. All subjects initially had minimal hand strength, a condition reflecting the majority of cervical SCI patients. Our experimental approach began with 6 weeks of baseline testing (Phase 1), followed by three 2-week treatment periods (Phases 2-4), and then by a period of approximately three months without any treatment at the end of which there was a final 2-week testing period (Phase 5). pcEmc at the C5 spinal segment (Phase 2) increased hand strength in 4/6 subjects compared to baseline Phase 1 (FIG. 1, panels A-G). […]
Voluntary motor control data were assessed using a handgrip force measurement device. […] The number of completed contraction-release sequences across the lines was determined. […] The percentage of data points that fell inside a circular window at a sampling of 15 Hz was determined. […]
The transcutaneous stimulation device is non-invasive. […] Varying combinations of these stimulation parameters were systematically assessed to obtain optimum facilitation of voluntary hand contraction by identification of the relative activation levels of the motor pools studied (data not shown). […]

O=C1CC2(CCCC2)CC(=O)N1CCCCN1CCN(c2ncccn2)CC1 [buspirone]
Mean hand strength increase (after pcEmc plus fEmc (buspirone) treatment, 6 subjects, 7.5 mg buspirone twice daily for 2 weeks, oral): greater than 300% | Subjects with increased hand strength compared to Phase 1 and 2 (during buspirone treatment (Phase 3) with pcEmc at C5, number of subjects out of 6): 4/6
